Entries after “also recorded” stand apart in the source; their conditions may differ.
Test system: parkinsonian symptoms
Assay: Parkinsonian clinical rating scale (CRS) in MPTP-lesioned monkeys
Format: in vivo, squirrel monkeys (Saimiri sciureus)
Settings: hydrochloride
Description: A total of 24 squirrel monkeys (Saimiri sciureus), fourteen females and ten males were used in this study. The twenty-four animals were randomly assigned to one of four treatment groups, with 6 animals per group. The groups consisted of the following (1) group A: placebo (2) group B: 1 mg/kg/day; (3) group C: 4 mg/kg/day; and (4) group D: 10 mg/kg/day. In Group B, one animal died acutely following MPTP-lesioning, and was not replaced.
Animals were lesioned by the administration of MPTP at a concentration of 2.0 mg/kg (free-base) via subcutaneous injection to achieve a parkinsonian state (see FIGS. 151-156). A post-MPTP lesioning behavioral assessment was carried out 2 to 4 weeks after the last MPTP-Iesioning. Locomotor activity was monitored by IRAM in 60-minute sessions for 3 to 5 days. Clinical behavior (CAS) was assessed by one to three individuals rating over a period of 3 to 5 days.
Animals were tested for response to L-Dopa and the efficacy of drug nepicastat. Testing was carried out 4 to 12 weeks after the last MPTP dose. Twenty-tour squirrel monkeys were randomly assigned to 4 groups; Group A (6 animals) received placebo (water) treatment; Group B (5 animals) received drug nepicastat at 1 mg/kg/day (0.5 mg/kg twice daily); Group C (6 animals) received 4 mg/kg/day (2 mg/kg twice daily); and Group D (6 animals) received 10 mg/kg/day (5 mg/kg twice daily).
L-Dopa was administered at a concentration of either 2.5, 5, or 7.5 mg/kg by oral gavage twice daily (at 10 am and 2 pm) for 7 consecutive days. Behavior was determined by IRAM and CRS. Clinical rating was carried out 60 to 90 minutes following the 10 am morning dose on the last 4 days of treatment. Raters (one to three individuals) were blinded to the different treatment groups. IRAM assessment were preformed for 90 minutes immediately following drug administration at 2 pm on the last 2 to 5 days of drug treatment. There was a minimum 2 day washout period between each treatment dose.
Drug nepicastat or water (as placebo) was administered for 12 days following a minimum 2 day washout after L-Dopa dosing. Drug was administered twice daily at 10 am and 2 pm by oral gavage. Behavior was rated by IRAM and CRS. The CRS was conducted in the morning, 60 to 90 minutes after the 10 am dose of nepicastat on the last 5 days of drug treatment. Raters (one to three individuals) were blinded to the different treatment groups. IRAM assessments were preformed for 90 minutes immediately following drug administration at 2 pm on the last 5 days of drug treatment.
Eight parkinsonian features were rated in each animal and the total score was derived from the sum of these eight features. […]

Structure (SMILES): Cl.NCc1c[nH]c(=S)n1[C@H]1CCc2c(F)cc(F)cc2C1 [nepicastat, (S)-5-Aminomethyl-1-(5,7-difluoro-1,2,3,4-tetrahydronaphth-2-yl)-2,3-dihydro-2-thioxo-1H-imidazole hydrochloride]
- CRS / parkinsonian symptoms compared to placebo (1, 4, 10 mg/kg/day, 12 days, non-pairwise): no detectable differences; also recorded: no significant effect
- CRS / parkinsonian symptoms compared to post-MPTP (pre-treatment) state (nepicastat 4 and 10 mg/kg/day, pairwise): significant improvement; also recorded: significant effect

Source: patent US20090054403A1, “Treatment of Post-Traumatic Stress Disorder” (priority 2007, published 2009)
